Tests used:
[1] = system: P. aeruginosa biofilms exposed to PMNs; assay: Flow chamber biofilm exposed to PMNs, propidium iodide staining; assay type: cell-based; conditions: biofilm grown four days in the presence of 100 μg/ml ajoene; E:Z 1:4
Description: A) The biofilm has grown without ajoene in the medium. B) The biofilm has grown in the presence of 100 μg/mL ajoene in the medium. Red fluorescence indicates necrotic PMN's leaking out their content of DNA (as stained by PI). Green fluorescence indicates top areas of the P. aeruginosa biofilm.
Biofilms exposed to PMN leukocytes produce rhamnolipids that function as a shield and protects the biofilm bacteria from phagocytosis. […] 20-42]. The P. aeruginosa biofilms were grown for four days either in the presence or absence of 100 μg/ml ajoene. When PMNs subsequently were introduced in the flow chambers on top of the biofilms grown in the absence of ajoene, propidium iodide (PI) staining indicated necrosis of the PMNs (FIG. 5A). […] Ajoene treatment therefore rescues the PMN leukocytes by blocking biofilm synthesis of […]. It has previously been shown that rescued PMN's can phagocytose biofilm bacteria [T. Bjarnsholt et al., Microbiology, 2005, 151, p. 3873-3880]. (E,Z) ajoene having an E:Z ratio of 1:4 was used.

[2] = system: rhlA; assay: RT-PCR verification of the microarray data; assay type: cell-based, P. aeruginosa; conditions: 80 μg/ml ajoene; E:Z 1:4
Description: (§1) To verify the microarray data, RT-PCR was performed with two of the key QS genes; lasB and rhlA (see FIG. 3). When comparing the two methods the repression of both the lasB and rhlA gene expression follow the same trend, with a general slightly increase in fold reduction observed with the RT-PCR based method. […] The expression of rhlA is primarily controlled by the Rhl QS system and the signal molecule BHL whereas the expression of lasB is affected by both the Las and the Rhl QS systems and the concentration of the signal molecules OdDHL and BHL. According to Rasmussen et al., [Rasmussen et al., Microbiology, 2005, 151, p. 1325-1340], the genes listed in table 3 are (except prpL which regulation is entirely governed by the Las QS system) subject to regulation by both the Las and Rhl QS systems. […] (E,Z) ajoene having an E:Z ratio of 1:4 was used in these experiments.

[3] = system: lasB; assay: RT-PCR verification of the microarray data; assay type: cell-based, P. aeruginosa; conditions: 80 μg/ml ajoene; E:Z 1:4
Description: as §1

[4] = system: PA0852 cbpD; assay: DNA microarray, gene expression in ajoene treated P. aeruginosa cultures; assay type: cell-based; conditions: E:Z 1:4, OD600 2.0
Description: (§2) DNA microarray analysis was used to identify genes regulated by ajoene treatment. As a reference we have used the QS regulon previously identified by Hentzer et al., [M. Hentzer et al., EMBO J., 2003, 22, p. […] Exponential growing P. aeruginosa cultures were treated with the following four concentrations of ajoene; 10 μg/ml (42.7 μM), 20 μg/ml (85.4 μM), 40 μg/ml (170.8 μM) and 80 μg/ml (341.6 μM). (E,Z) ajoene having an E:Z ratio of 1:4 was used. […] The samples were retrieved at an OD600 nm of 2.0 (optical density) because previous investigations have shown the highest activity among the QS genes at that cell density. Gene expression of the treated cultures was compared to an untreated control.

[5] = system: PA3478 rhlB; assay: as above; assay type: cell-based; conditions: E:Z 1:4, OD600 2.0
Description: as §2

[6] = system: PA2300 chic; assay: as above; assay type: cell-based; conditions: E:Z 1:4, OD600 2.0
Description: as §2

[7] = system: PA2069; assay: as above; assay type: cell-based; conditions: E:Z 1:4, OD600 2.0
Description: as §2

[8] = system: PA1871 lasA; assay: as above; assay type: cell-based; conditions: E:Z 1:4, OD600 2.0
Description: as §2

[9] = system: PA2570 pa1L; assay: as above; assay type: cell-based; conditions: pa1L PA2570 (LecA), E:Z 1:4, OD600 2.0
Description: as §2

[10] = system: PA3479 rhlA; assay: as above; assay type: cell-based; conditions: E:Z 1:4, OD600 2.0
Description: as §2

[11] = system: lasB; assay: as above; assay type: cell-based; conditions: ajoene 10-80 μg/ml
Description: as §2

[12] = system: PA4142; assay: as above; assay type: cell-based; conditions: E:Z 1:4, OD600 2.0
Description: as §2

[13] = system: PA2146; assay: as above; assay type: cell-based; conditions: E:Z 1:4, OD600 2.0
Description: as §2

[14] = system: PA4175 prpL; assay: as above; assay type: cell-based; conditions: E:Z 1:4, OD600 2.0
Description: as §2

[15] = system: wild-type P. aeruginosa; assay: Foreign-body (silicone tube implant) infection model; assay type: in vivo, mice
Description: To examine the effect of a combination treatment with ajoene and tobramycin in vivo we used an foreign-body infection model [L. D. Christensen et al., Microbiology, 2007, 153, p. 2312-2320]. Silicone tube implants with a size of 4 mm (inner diameter 4 mm/outer diameter 6 mm) pre-colonized with wild-type P. aeruginosa, were inserted into the peritoneal cavity of mice. Treatments were injected subcutaneously every 24 hours, where ajoene and tobramycin treatment were initiated two days pre-insertion and 24 hours post-insertion, respectively. 72 hours after insertion the implants were removed from the mice and the number of colony-forming units per implant was determined. […] (E,Z) ajoene having an E:Z ratio of 1:4 was used.

For `C=CCSSC=CC[S+]([O-])CC=C` (stereo not shown) [ajoene, (E,Z)-4,5,9-trithiadodeca-1,6,11-triene-9-oxide], the “necrosis of PMNs on biofilm (PI staining)” value [1] was “no necrosis of the PMNs was observed”, the “lowering of expression of rhlA (RT-PCR)” value [2] was about 12 fold and the “lowering of expression of lasB (RT-PCR)” value [3] was about 5 fold. For the same compound, the “fold change in gene expression compared to an untreated control” value (shortened to “fold change in gene expression”) ([4]; [Ajoene] 10 μg/ml) was −2.8 fold, the “fold change in gene expression” value ([4]; [Ajoene] 20 μg/ml) was −2.5 fold and the “fold change in gene expression” value ([4]; [Ajoene] 40 μg/ml) was −3.9 fold. The “fold change in gene expression” value ([4]; [Ajoene] 80 μg/ml) was −6.9 fold, the “fold change in gene expression” value ([5]; [Ajoene] 10 μg/ml) was −2.6 fold and the “fold change in gene expression” value ([5]; [Ajoene] 20 μg/ml) was −2.0 fold. For the same compound, the “fold change in gene expression” value ([5]; [Ajoene] 40 μg/ml) was −3.3 fold, the “fold change in gene expression” value ([5]; [Ajoene] 80 μg/ml) was −8.7 fold and the “fold change in gene expression” value ([6]; [Ajoene] 10 μg/ml) was −2.5 fold. For the same compound, the “fold change in gene expression” value ([6]; [Ajoene] 20 μg/ml) was −2.1 fold, the “fold change in gene expression” value ([6]; [Ajoene] 40 μg/ml) was −5.1 fold and the “fold change in gene expression” value ([6]; [Ajoene] 80 μg/ml) was −24.6 fold. The “fold change in gene expression” value ([7]; [Ajoene] 10 μg/ml) was −2.3 fold, the “fold change in gene expression” value ([7]; [Ajoene] 20 μg/ml) was −2.4 fold and the “fold change in gene expression” value ([7]; [Ajoene] 40 μg/ml) was −4.0 fold. The “fold change in gene expression” value ([7]; [Ajoene] 80 μg/ml) was −5.3 fold, the “fold change in gene expression” value ([8]; [Ajoene] 10 μg/ml) was −2.6 fold and the “fold change in gene expression” value ([8]; [Ajoene] 20 μg/ml) was −2.2 fold. The “fold change in gene expression” value ([8]; [Ajoene] 40 μg/ml) was −3.0 fold, the “fold change in gene expression” value ([8]; [Ajoene] 80 μg/ml) was −8.7 fold and the “fold change in gene expression” value ([9]; [Ajoene] 10 μg/ml) was −1.8 fold. For the same compound, the “fold change in gene expression” value ([9]; [Ajoene] 20 μg/ml) was −2.0 fold, the “fold change in gene expression” value ([9]; [Ajoene] 40 μg/ml) was −3.3 fold and the “fold change in gene expression” value ([9]; [Ajoene] 80 μg/ml) was −6.3 fold. For the same compound, the “fold change in gene expression” value ([10]; [Ajoene] 10 μg/ml) was −2.2 fold, the “fold change in gene expression” value ([10]; [Ajoene] 20 μg/ml) was −1.5 fold and the “fold change in gene expression” value ([10]; [Ajoene] 40 μg/ml) was −2.6 fold. For the same compound, the “fold change in gene expression” value ([10]; [Ajoene] 80 μg/ml) was −8.8 fold, the “down regulation of lasB (DNA microarray)” value [11] was “not more than 5 fold” and the “fold change in gene expression” value ([12]; [Ajoene] 10 μg/ml) was −2.0 fold. The “fold change in gene expression” value ([12]; [Ajoene] 20 μg/ml) was −2.2 fold, the “fold change in gene expression” value ([12]; [Ajoene] 40 μg/ml) was −2.7 fold and the “fold change in gene expression” value ([12]; [Ajoene] 80 μg/ml) was −5.1 fold. The “fold change in gene expression” value ([13]; [Ajoene] 10 μg/ml) was −1.3 fold, the “fold change in gene expression” value ([13]; [Ajoene] 20 μg/ml) was −1.8 fold and the “fold change in gene expression” value ([13]; [Ajoene] 40 μg/ml) was −2.6 fold. For the same compound, the “fold change in gene expression” value ([13]; [Ajoene] 80 μg/ml) was −7.3 fold, the “fold change in gene expression” value ([14]; [Ajoene] 10 μg/ml) was −3.7 fold and the “fold change in gene expression” value ([14]; [Ajoene] 20 μg/ml) was −3.3 fold. For the same compound, the “fold change in gene expression” value ([14]; [Ajoene] 40 μg/ml) was −5.3 fold, the “fold change in gene expression” value ([14]; [Ajoene] 80 μg/ml) was −6.8 fold and the “clearing of implants, single treatment versus placebo group” value ([15]; CFU per implant 72 hours after insertion) was “significant difference in clearing”. For the same compound, the “clearing of implants, between the two single treatment groups” value ([15]; ajoene versus tobramycin) was “no significant difference in clearing”.

— US10603289B2, “Process for the manufacture of ajoene derivatives” (DANMARKS TEKNISKE UNIVERSITET, priority 2010, dated 2020)
